Patent publication US9000012B2 (priority 2009, dated 2015)

test system: Phytophthora infestans; assay: not given; format: in vivo, Phytophthora infestans on tomato; settings: preventive spray on young tomato plants, 500 ppm of active ingredient, inoculated one day after treatment, evaluated 7 days after inoculation; 0% = untreated control, 100% = no disease

Point of comparison: `CNC(=O)C(=NOCc1cccc(NC(=O)C2COc3ccccc3O2)n1)c1ccccc1` (centres unmarked) [Example 75], Efficacy 85%. Against it:
- CC(Oc1ccccc1)C(=O)Nc1nc(CON=C(C(=O)N(C)C)c2ccccc2)cs1 (centres unmarked) [Example 130] — higher, 100%
- CN(C)C(=O)C(=NOCc1cccc(NC(=O)C(F)(F)Oc2ccccc2)n1)c1ccccc1 [Example 110] — lower, 70%
- CCCCCOC(=O)Nc1cccc(CON=C(C(=O)N(C)C)c2ccccc2)n1 [Example 99] — higher, 95%

test system: not listed separately; assay: logP of the compounds of table 1; format: physicochemical; settings: not given

Point of comparison: `C#CCC(C)OC(=O)Nc1nc(CON=C(C(=O)N(C)C)c2ccccc2)cs1` (centres unmarked) [compound 121], logP 2.84. Against it:
- CNC(=O)C(=NOCc1cccc(NC(=O)OC(C)(C)C)n1)c1ccccc1 [compound 62] — within 0.2 log units, 2.88
- CCCCCCOC(=O)Nc1cccc(CON=C(C(=O)OC)c2ccccc2)n1 [compound 46] — higher, 5.14
- C#CCCCCOC(=O)Nc1nc(CON=C(C(=O)N(C)C)c2ccccc2)cs1 [compound 122] — higher, 3.06
- C#CCCCCOC(=O)Nc1nc(CON=C(C(=O)N(C)CC)c2ccccc2)cs1 [compound 148] — higher, 3.29
- CCCCCOC(=O)Nc1cccc(CON=C(C(=O)NC)c2ccc(Oc3ccccc3)cc2)n1 [compound 65] — lower, 2.64
- CNC(=O)C(=NOCc1cccc(NC(=O)Cc2ccc(OC)cc2)n1)c1ccccc1 [compound 77] — within 0.2 log units, 2.66
- CCN(C)C(=O)C(=NOCc1cccc(NC(=O)C(C)Oc2ccccc2)n1)c1ccccc1 (centres unmarked) [compound 136] — higher, 3.78
- C=CCCOC(=O)Nc1cccc(CON=C(C(=O)N(C)C)c2ccccc2)n1 [compound 116] — higher, 3.19
- CNC(=O)C(=NOCc1cccc(NC(=O)C(F)(F)Oc2ccccc2)n1)c1ccccc1 [compound 76] — higher, 3.35
- CNC(=O)C(=NOCc1cccc(NC(=O)c2cccs2)n1)c1ccccc1 [compound 81] — lower, 2.57
- CCN(C)C(=O)C(=NOCc1csc(NC(=O)OCCOc2ccccc2)n1)c1ccccc1 [compound 151] — higher, 3.48
- CNC(=O)C(=NOCc1cccc(N)n1)c1ccccc1 [compound 60] — lower, 0.65
- C#CCC(C)OC(=O)Nc1cccc(CON=C(C(=O)N(C)CC)c2ccccc2)n1 (centres unmarked) [compound 135] — higher, 3.31
- C#CCCOC(=O)Nc1cccc(CON=C(C(=O)OC)c2ccccc2)n1 [compound 28] — higher, 3.48
- CC(Oc1ccccc1)C(=O)Nc1nc(CON=C(C(=O)N(C)C)c2ccccc2)cs1 (centres unmarked) [Example 130] — higher, 3.21
- C#CCCOC(=O)Nc1nc(CON=C(C(=O)N(C)CC)c2ccccc2)cs1 [compound 152] — within 0.2 log units, 2.80
- CCCCCCOC(=O)Nc1cccc(CON=C(C(=O)NC)c2ccccc2)n1 [compound 84] — higher, 3.48
- C=CCCOC(=O)Nc1cccc(CON=C(C(=O)NC)c2ccccc2)n1 [compound 80] — within 0.2 log units, 2.77
- CN(C)C(=O)C(=NOCc1cccc(NC(=O)OCCOc2ccccc2)n1)c1ccccc1 [compound 115] — higher, 3.48
- CNC(=O)C(=NOCc1cccc(NC(=O)C2COc3ccccc3O2)n1)c1ccccc1 (centres unmarked) [Example 75] — higher, 3.06
- COC(=O)C(=NOCc1cccc(NCCC2CCCCC2)n1)c1ccccc1 [compound 44] — higher, 3.04
- CCN(C)C(=O)C(=NOCc1cccc(NC(=O)OC(C)(C)C)n1)c1ccccc1 [compound 142] — higher, 3.72
- COc1ccc(CC(=O)Nc2nc(CON=C(C(=O)N(C)C)c3ccccc3)cs2)cc1 [compound 131] — within 0.2 log units, 2.88
- CNC(=O)C(=NOCc1cccc(NCCC2CCCCC2)n1)c1ccccc1 [compound 82] — lower, 2.23
- CN(C)C(=O)C(=NOCc1cccc(NC(=O)C(F)(F)Oc2ccccc2)n1)c1ccccc1 [Example 110] — higher, 3.73
- CC#CCOC(=O)Nc1cccc(CON=C(C(=O)OC)c2ccccc2)n1 [compound 45] — higher, 3.67
- CN(C)C(=O)C(=NOCc1cccc(NC(=O)c2ccc(Cl)cc2)n1)c1ccccc1 [compound 114] — higher, 3.57
- CCCCCOC(=O)Nc1cccc(CON=C(C(=O)N(C)C)c2ccccc2)n1 [Example 99] — higher, 3.96
- CN(C)C(=O)C(=NOCc1cccc(NC(=O)c2cccc(F)c2)n1)c1ccccc1 [compound 113] — higher, 3.23
- CCN(C)C(=O)C(=NOCc1csc(NC(=O)C(C)Oc2ccccc2)n1)c1ccccc1 (centres unmarked) [compound 146] — higher, 3.48
- C=CCCOC(=O)Nc1cccc(CON=C(C(=O)OC)c2ccccc2)n1 [compound 42] — higher, 3.94
- C#CCC(C)OC(=O)Nc1nc(CON=C(C(=O)N(C)CC)c2ccccc2)cs1 (centres unmarked) [compound 145] — higher, 3.09
- COC(=O)C(=NOCc1cccc(NCCCc2ccccc2)n1)c1ccccc1 [compound 41] — lower, 2.60
- CC(C)(C)OC(=O)Nc1cccc(CON=C(C#N)c2ccccc2)n1 [compound 1] — higher, 4.64
- CNC(=O)C(=NOCc1cccc(N)n1)c1ccc(OCc2ccccc2)cc1 [compound 61] — lower, 1.17
- CCN(C)C(=O)C(=NOCc1cccc(NC(=O)C2COc3ccccc3O2)n1)c1ccccc1 (centres unmarked) [compound 139] — higher, 3.69
- COC(=O)C(=NOCc1cccc(NC(=O)c2cccs2)n1)c1ccccc1 [compound 43] — higher, 3.67
- CC#CCOC(=O)Nc1cccc(CON=C(C(=O)NC)c2ccccc2)n1 [compound 83] — lower, 2.59
- CCN(C)C(=O)C(=NOCc1csc(NC(=O)C2COc3ccccc3O2)n1)c1ccccc1 (centres unmarked) [compound 149] — higher, 3.39
- CNC(=O)C(=NOCc1cccc(NC(=O)c2cccc(F)c2)n1)c1ccccc1 [compound 78] — the same, 2.84
- COC(=O)C(=NOCc1cccc(NC(=O)c2cccc(F)c2)n1)c1ccccc1 [compound 40] — higher, 3.94
- CCN(C)C(=O)C(=NOCc1csc(NC(=O)Cc2ccc(OC)cc2)n1)c1ccccc1 [compound 147] — higher, 3.09
- CCN(C)C(=O)C(=NOCc1csc(N)n1)c1ccccc1 [compound 144] — lower, 1.34
- CN(C)C(=O)C(=NOCc1csc(NC(=O)c2ccc(Cl)cc2)n1)c1ccccc1 [compound 132] — higher, 3.41
- CCCCCOC(=O)Nc1cccc(CON=C(C(=O)NC)c2ccc(OCc3ccccc3)cc2)n1 [compound 64] — within 0.2 log units, 2.65
- C#CCCOC(=O)Nc1cccc(CON=C(C(=O)N(C)CC)c2ccccc2)n1 [compound 143] — higher, 3.04
- COc1ccc(C(=O)Nc2nc(CON=C(C(=O)N(C)C)c3ccccc3)cs2)cc1 [compound 134] — the same, 2.84
- COc1ccc(OC(=O)Nc2cccc(CON=C(C(=O)N(C)C)c3ccccc3)n2)cc1 [compound 117] — higher, 3.25
- CCN(C)C(=O)C(=NOCc1cccc(NC(=O)Cc2ccc(OC)cc2)n1)c1ccccc1 [compound 137] — higher, 3.23
- COC(=O)C(=NOCc1cccc(NC(=O)Cc2ccc(OC)cc2)n1)c1ccccc1 [compound 39] — higher, 3.69
- COC(=O)C(=NOCc1cccc(NC(=O)C2COc3ccccc3O2)n1)c1ccccc1 (centres unmarked) [compound 37] — higher, 4.16
- COC(=O)C(=NOCc1cccc(N)n1)c1ccccc1 [compound 25] — lower, 1.32
- CCN(C)C(=O)C(=NOCc1csc(NC(=O)c2ccc(Cl)cc2)n1)c1ccccc1 [compound 150] — higher, 3.69
- CCN(C)C(=O)C(=NOCc1cccc(NC(=O)c2ccc(Cl)cc2)n1)c1ccccc1 [compound 140] — higher, 3.85
- CCN(C)C(=O)C(=NOCc1cccc(NC(=O)OCCOc2ccccc2)n1)c1ccccc1 [compound 141] — higher, 3.76
- CCCCCOC(=O)Nc1cccc(CON=C(C(=O)OC)c2ccccc2)n1 [compound 27] — higher, 3.69
- C#CCCCCOC(=O)Nc1cccc(CON=C(C(=O)N(C)CC)c2ccccc2)n1 [compound 138] — higher, 3.35
- COC(=O)C(=NOCc1cccc(NC(=O)OC(C)(C)C)n1)c1ccccc1 [compound 26] — higher, 4.20
- COC(=O)C(=NOCc1cccc(NC(=O)C(F)(F)Oc2ccccc2)n1)c1ccccc1 [compound 38] — higher, 4.41
- CN(C)C(=O)C(=NOCc1cccc(N)n1)c1ccccc1 [compound 97] — lower, 1.10
- CN(C)C(=O)C(=NOCc1csc(NC(=O)OCCOc2ccccc2)n1)c1ccccc1 [compound 133] — higher, 3.27
- C#CCCOC(=O)Nc1nc(CON=C(C(=O)N(C)C)c2ccccc2)cs1 [compound 120] — the same, 2.84
- CNC(=O)C(=NOCc1cccc(NCCCc2ccccc2)n1)c1ccccc1 [compound 79] — lower, 1.94

same assay, conditions: read-out: logP

`C#CCCOC(=O)Nc1cccc(CON=C(C#N)c2ccccc2)n1` (single isomer, unassigned) [Example 3, but-3-yn-1-yl{6-[({[cyano(phenyl)methylene]amino}oxy)methyl]pyridin-2-yl}carbamate] gave a logP of 3.67.

test system: not listed separately; assay: logP of the compounds of table 1; format: physicochemical; settings: not given; remark: another data set of the same source

Point of comparison: `C#CCCCCOC(=O)Nc1cccc(CON=C(C(=O)N(C)OCC)c2ccccc2)n1` [compound 202], logP 3.71. Against it:
- CCON(C)C(=O)C(=NOCc1csc(NC(=O)Cc2ccc(OC)cc2)n1)c1ccccc1 [compound 210] — lower, 3.23
- CCON(C)C(=O)C(=NOCc1cccc(NC(=O)OCCOc2ccccc2)n1)c1ccccc1 [compound 207] — within 0.2 log units, 3.89
- CCON(C)C(=O)C(=NOCc1csc(NC(=O)OCCOc2ccccc2)n1)c1ccccc1 [compound 209] — within 0.2 log units, 3.62
- CCON(C)C(=O)C(=NOCc1csc(N)n1)c1ccccc1 [compound 208] — lower, 1.35
- C#CCCOC(=O)Nc1cccc(CON=C(C(=N)SC)c2ccccc2)n1 [compound 309] — lower, 3.02
- C#CCCCCOC(=O)Nc1nc(CON=C(C(=O)N(C)OCC)c2ccccc2)cs1 [compound 211] — lower, 3.44
- CCON(C)C(=O)C(=NOCc1cccc(NC(=O)OC(C)(C)C)n1)c1ccccc1 [compound 201] — lower, 2.38
- CCON(C)C(=O)C(=NOCc1cccc(NC(=O)Cc2ccc(OC)cc2)n1)c1ccccc1 [compound 206] — lower, 3.37
- CCON(C)C(=O)C(=NOCc1cccc(NC(=O)C2COc3ccccc3O2)n1)c1ccccc1 (centres unmarked) [compound 203] — within 0.2 log units, 3.83
- C#CCCOC(=O)Nc1cccc(CON=C(C(N)=S)c2ccccc2)n1 [compound 310] — lower, 2.75
- CCON(C)C(=O)C(=NOCc1cccc(NC(=O)C(C)Oc2ccccc2)n1)c1ccccc1 (centres unmarked) [compound 205] — higher, 3.94
- CCON(C)C(=O)C(=NOCc1cccc(NC(=O)c2ccc(Cl)cc2)n1)c1ccccc1 [compound 204] — higher, 4.01
- C#CCCOC(=O)Nc1cccc(CON=C(C(=N)N(C)N)c2ccccc2)n1 [compound 308] — lower, 1.77
